Results taken from patent US20240225066A1, “MOGROSIDE COMPOUNDS AND THEIR COMESTIBLE USE” (Firmenich Incorporated, priority 2021, published 2024).

Target: T1, recombinant human sweet receptor (Homo sapiens, UniProt Q7RTX0+Q8TE23)
T1 construct: expressed in transfected cells
T1 sequence (Q8TE23 20-839): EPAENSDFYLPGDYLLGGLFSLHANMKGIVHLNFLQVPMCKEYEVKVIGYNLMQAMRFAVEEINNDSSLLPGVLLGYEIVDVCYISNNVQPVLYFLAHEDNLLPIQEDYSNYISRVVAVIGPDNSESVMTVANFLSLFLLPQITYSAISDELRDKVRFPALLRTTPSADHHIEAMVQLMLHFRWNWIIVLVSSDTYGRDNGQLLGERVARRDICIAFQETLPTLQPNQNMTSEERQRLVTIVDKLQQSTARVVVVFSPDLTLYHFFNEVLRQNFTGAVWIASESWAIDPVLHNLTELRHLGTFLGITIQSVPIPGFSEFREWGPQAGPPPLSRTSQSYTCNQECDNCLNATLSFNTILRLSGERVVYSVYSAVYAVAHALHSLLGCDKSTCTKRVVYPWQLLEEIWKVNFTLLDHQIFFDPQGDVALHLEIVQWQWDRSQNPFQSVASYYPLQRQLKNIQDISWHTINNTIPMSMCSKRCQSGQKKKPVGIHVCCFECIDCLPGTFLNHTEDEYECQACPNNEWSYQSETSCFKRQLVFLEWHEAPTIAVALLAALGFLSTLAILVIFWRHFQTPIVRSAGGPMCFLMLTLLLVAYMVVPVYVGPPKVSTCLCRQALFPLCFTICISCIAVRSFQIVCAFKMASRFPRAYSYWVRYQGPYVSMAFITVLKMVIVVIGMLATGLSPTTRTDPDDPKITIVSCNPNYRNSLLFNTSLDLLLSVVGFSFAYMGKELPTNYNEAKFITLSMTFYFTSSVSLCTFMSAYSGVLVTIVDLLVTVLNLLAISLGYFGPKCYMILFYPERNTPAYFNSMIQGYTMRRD
T1 sequence (Q7RTX0 21-852): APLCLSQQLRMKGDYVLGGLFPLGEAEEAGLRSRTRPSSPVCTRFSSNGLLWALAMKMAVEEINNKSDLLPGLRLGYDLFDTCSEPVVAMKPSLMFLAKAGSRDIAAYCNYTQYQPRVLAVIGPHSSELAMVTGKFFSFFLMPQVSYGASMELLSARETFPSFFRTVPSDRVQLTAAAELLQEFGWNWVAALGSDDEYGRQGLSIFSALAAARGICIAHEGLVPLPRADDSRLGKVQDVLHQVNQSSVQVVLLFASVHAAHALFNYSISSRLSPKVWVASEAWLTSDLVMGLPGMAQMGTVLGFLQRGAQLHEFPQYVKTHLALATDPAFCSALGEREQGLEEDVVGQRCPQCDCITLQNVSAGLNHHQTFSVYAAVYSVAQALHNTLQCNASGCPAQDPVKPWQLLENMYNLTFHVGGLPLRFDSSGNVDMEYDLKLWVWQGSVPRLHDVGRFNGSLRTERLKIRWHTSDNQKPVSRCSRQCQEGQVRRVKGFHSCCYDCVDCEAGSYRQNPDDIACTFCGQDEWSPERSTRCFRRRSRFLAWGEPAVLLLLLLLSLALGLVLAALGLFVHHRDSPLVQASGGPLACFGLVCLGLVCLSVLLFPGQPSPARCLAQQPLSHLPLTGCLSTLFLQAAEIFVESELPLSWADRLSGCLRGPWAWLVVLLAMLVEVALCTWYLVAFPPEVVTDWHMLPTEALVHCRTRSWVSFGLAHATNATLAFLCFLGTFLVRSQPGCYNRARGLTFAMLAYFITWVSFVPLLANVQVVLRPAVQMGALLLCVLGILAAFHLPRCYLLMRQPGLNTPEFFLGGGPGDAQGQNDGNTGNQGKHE
Assay: Sweet receptor assay, calcium imaging (Fluo-4 AM) in cells stably expressing the receptor and chimeric G-protein G16g25
Type: cell-based
Description: Cells stably expressing the recombinant human sweet receptor and the chimeric G-protein G16g25 were dispensed in a 384-well clear bottom plate (Fisher) and incubated overnight at 37° C. and 6% CO2. On the day of the experiment, cells were loaded with 4 μM of the calcium indicator Fluo-4 AM (Invitrogen) in D-PBS for 1 hour at room temperature and excess dye washed away with D-PBS, leaving a residual volume of 25 μL/well. After 30 minutes of rest time the cell plate and the compound plate were transferred into a fluorometric imaging plate reader (Molecular Devices). To determine potency, compound plates were prepared with serial dilutions of compound at 2× the final assay concentration in D-PBS. Imaging and data analysis was performed according to the procedures set forth in Servant et al., PROC. NAT'L ACAD. SCI. USA, vol. 107(10), pp. 4746-51 (2010).

With C[C@H](CC[C@@H](O[C@@H]1O[C@H](CO[C@H]2O[C@H](CO)[C@@H](O)[C@H](O)[C@H]2O)[C@@H](O)[C@H](O)[C@H]1O[C@@H]1O[C@H](CO)[C@@H](O)[C@H](O)[C@H]1O)C(C)(C)O)[C@H]1CC[C@@]2(C)C3CC=C4[C@@H](CC[C@H](O[C@@H]5O[C@H](CO)[C@@H](O[C@@H]6O[C@H](CO)[C@@H](O)[C@H](O)[C@H]6O)[C@H](O)[C@H]5O)C4(C)C)[C@]3(C)[C@H](O)C[C@]12C (some centres unmarked) [MC1] the EC50 (Fluo-4 AM calcium signal, fluorometric imaging plate reader, read-out: EC50 of the dose-response curve in the sweet taste assays) was 8 µM and the “dose-response effect in the sweet taste assays” value (serial dilutions of compound) was “showed a dose-response effect indicative of its utility as a sweetener”.
